Laboratory results: patent US9422285B2, “Substituted pyrazolo[1,5-A]-pyridine-3-carboxamides and use thereof” (Bayer Pharma Aktiengesellschaft, priority 2014, dated 2016)

Columns and labels:
[1] = Pharmacokinetic parameters following intravenous administration in rats (B-6); type: in vivo, male Wistar rats; conditions: for MRT / half-life: male, Wistar, rat, plasma; for MRT: mean residence time; for half-life: terminal half-life
Text: • Klaus Witte, Kai Hu, Johanna Swiatek, Claudia Müssig, Georg Ertl and Bjorn Lemmer: Experimental heart failure in rats: effects on cardiovascular circadian rhythms and on myocardial β-adrenergic signaling. Cardiovasc Res 47 (2): […], 2000; Kozo Okamoto: Spontaneous hypertension in rats. Int Rev Exp Pathol 7: 227-270, 1969; Maarten van den Buuse: Circadian Rhythms of Blood Pressure, Heart Rate, and Locomotor Activity in Spontaneously Hypertensive Rats as Measured With Radio-Telemetry. Physiology & Behavior 55(4): 783-787, 1994 B-6. Determination of Pharmacokinetic Parameters Following Intravenous and Oral Administration
The pharmacokinetic parameters of the inventive compounds are determined in male CD-1 mice, male Wistar rats and female beagles. Intravenous administration in the case of mice and rats is effected by means of a species-specific plasma/DMSO formulation, and in the case of dogs by means of a water/PEG400/ethanol formulation. In all species, oral administration of the dissolved substance is performed via gavage, based on a water/PEG400/ethanol formulation. The removal of blood from rats is simplified by inserting a silicone catheter into the right Vena jugularis externa prior to substance administration. The operation is effected at least one day prior to the experiment with isofluran anaesthesia and administration of an analgesic (atropine/rimadyl (3/1) 0.1 ml s.c.). The blood is taken (generally more than 10 time points) within a time window including terminal time points of at least 24 to a maximum of 72 hours after substance administration. The blood is removed into heparinized tubes. The blood plasma is then obtained by centrifugation; if required, it can be stored at −20° C. until further processing.
An internal standard (which may also be a chemically unrelated substance) is added to the samples of the inventive compounds, calibration samples and qualifiers, and there follows protein precipitation by means of acetonitrile in excess. Addition of a buffer solution matched to the LC conditions, and subsequent vortexing, is followed by centrifugation at 1000 g. The supernatant is analysed by means of LC-MS/MS using C18 reversed-phase columns and variable mobile phase mixtures. The substances are quantified via the peak heights or areas from extracted ion chromatograms of specific selected ion monitoring experiments.
The plasma concentration/time plots determined are used to calculate the pharmacokinetic parameters such as AUC, Cmax, t1/2 (terminal half-life), F (bioavailability), MRT (mean residence time) and CL (clearance), by means of a validated pharmacokinetic calculation program.
Since the substance quantification is performed in plasma, it is necessary to determine the blood/plasma distribution of the substance in order to be able to adjust the pharmacokinetic parameters correspondingly. For this purpose, a defined amount of substance is incubated in heparinized whole blood of the species in question in a rocking roller mixer for 20 min. After centrifugation at 1000 g, the plasma concentration is measured (by means of LC-MS/MS; see above) and determined by calculating the ratio of the Cblood/Cplasma value.

[2] = target: T1, recombinant guanylate cyclase reporter cell line (Rattus norvegicus, UniProt P19686+P20595); test: Effect on a recombinant guanylate cyclase reporter cell line (B-2); type: cell-based; conditions: in some cases mean values for individual determinations
T1 construct: expressed in transfected cells
T1 sequence (P19686 1-690): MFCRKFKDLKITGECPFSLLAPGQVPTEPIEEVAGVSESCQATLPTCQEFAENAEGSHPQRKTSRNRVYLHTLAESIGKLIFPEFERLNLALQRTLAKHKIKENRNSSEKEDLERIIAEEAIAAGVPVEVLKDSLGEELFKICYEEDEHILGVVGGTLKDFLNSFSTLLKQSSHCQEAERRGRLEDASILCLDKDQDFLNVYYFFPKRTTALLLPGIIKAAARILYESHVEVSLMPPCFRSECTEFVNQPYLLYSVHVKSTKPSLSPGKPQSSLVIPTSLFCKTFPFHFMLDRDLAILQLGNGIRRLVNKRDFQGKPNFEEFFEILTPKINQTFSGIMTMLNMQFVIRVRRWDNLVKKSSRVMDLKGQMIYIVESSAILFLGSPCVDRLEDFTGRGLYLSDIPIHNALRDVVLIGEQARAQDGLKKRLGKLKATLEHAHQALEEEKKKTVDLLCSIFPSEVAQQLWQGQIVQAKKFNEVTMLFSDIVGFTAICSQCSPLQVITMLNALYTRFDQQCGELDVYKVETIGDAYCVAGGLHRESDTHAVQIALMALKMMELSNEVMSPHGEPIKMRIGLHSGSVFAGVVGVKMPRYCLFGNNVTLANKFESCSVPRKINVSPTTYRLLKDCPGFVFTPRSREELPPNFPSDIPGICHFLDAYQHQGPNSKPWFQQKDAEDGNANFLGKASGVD
T1 sequence (P20595 1-619): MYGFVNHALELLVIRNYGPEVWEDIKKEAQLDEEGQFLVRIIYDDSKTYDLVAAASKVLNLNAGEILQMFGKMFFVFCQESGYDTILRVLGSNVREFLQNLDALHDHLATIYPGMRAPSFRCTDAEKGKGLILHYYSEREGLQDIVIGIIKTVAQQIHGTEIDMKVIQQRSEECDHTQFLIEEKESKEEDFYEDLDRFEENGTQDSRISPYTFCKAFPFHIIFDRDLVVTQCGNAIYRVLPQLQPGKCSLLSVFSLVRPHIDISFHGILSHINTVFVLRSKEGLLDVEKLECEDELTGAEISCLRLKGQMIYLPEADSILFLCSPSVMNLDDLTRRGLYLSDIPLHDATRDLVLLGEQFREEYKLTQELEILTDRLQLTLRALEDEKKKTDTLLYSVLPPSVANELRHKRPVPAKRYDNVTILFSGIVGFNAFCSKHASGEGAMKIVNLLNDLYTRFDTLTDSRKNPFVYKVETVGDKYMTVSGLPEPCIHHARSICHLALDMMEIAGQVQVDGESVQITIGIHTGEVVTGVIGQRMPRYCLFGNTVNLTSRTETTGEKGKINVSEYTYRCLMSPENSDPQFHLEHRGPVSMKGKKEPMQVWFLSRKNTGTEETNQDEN
Method: B-2. Effect on a Recombinant Guanylate Cyclase Reporter Cell Line
The cellular effect of the inventive compounds is determined using a recombinant guanylate cyclase reporter cell line, as described in F. Wunder et al., Anal. Biochem. 339, 104-112 (2005).
Representative MEC values (MEC=minimum effective concentration) for the inventive compounds are shown in the table below (in some cases as mean values for individual determinations): […]

Row | SMILES | AUCnormal [1] [kg·h/L] | CLblood [1] [L/h/kg] | MRT [1] [h] | half-life [1] [min] | MEC (minimum effective concentration) [2] [µM]
1 | CCCC(C)(N)CNC(=O)c1c(C)nn2c(OCc3c(F)cccc3F)cc(C)cc12 (single isomer, unassigned) [Example 39, ent-N-(2-Amino-2-methylpentyl)-7-[(2,6-difluorobenzyl)oxy]-2,5-dimethylpyrazolo[1,5-a]pyridine-3-carboxamide] | 0.53 | 2.46 | 7.8 | 372 | 0.3
2 | Cc1cc(OCc2c(F)ccc(F)c2F)n2nc(C)c(C(=O)NCC(C)(N)CCC(F)(F)F)c2c1 (single isomer, unassigned; enantiomer b) [Example 168, ent-N-(2-Amino-5,5,5-trifluoro-2-methylpentyl)-2,5-dimethyl-7-[(2,3,6-trifluorobenzyl)oxy]pyrazolo[1,5-a]pyridine-3-carboxamide (Enantiomer B)] | 0.45 | 2.19 | 4.3 | 192 | 0.1
3 | Cc1cc(OCc2c(F)ccc(F)c2F)n2nc(C3CC3)c(C(=O)NCC(C)(N)CCC(F)(F)F)c2c1 (single isomer, unassigned; enantiomer b) [Example 170, ent-N-(2-Amino-5,5,5-trifluoro-2-methylpentyl)-2-cyclopropyl-5-methyl-7-[(2,3,6-trifluorobenzyl)oxy]pyrazolo[1,5-a]pyridine-3-carboxamide (Enantiomer B)] | 0.32 | 2.92 | 3.4 | 156 | 0.1
4 | Cc1cc(OCc2c(F)cccc2F)n2nc(C)c(C(=O)NCC(C)(N)CCC(F)(F)F)c2c1 (single isomer, unassigned) [Example 43, ent-N-(2-Amino-5,5,5-trifluoro-2-methylpentyl)-7-[(2,6-difluorobenzyl)oxy]-2,5-dimethylpyrazolo[1,5-a]pyridine-3-carboxamide] | 0.49 | 2.56 | 7.4 | 354 | 0.1
5 | CCCC(C)(N)CNC(=O)c1c(C2CC2)nn2c(OCc3c(F)ccc(F)c3F)cc(C)cc12 (single isomer, unassigned; enantiomer b) [Example 169, ent-N-(2-Amino-2-methylpentyl)-2-cyclopropyl-5-methyl-7-[(2,3,6-trifluorobenzyl)oxy]pyrazolo[1,5-a]pyridine-3-carboxamide (Enantiomer B)] | 0.44 | 2.21 | 4.9 | 240 | 0.2
6 | CCCC(C)(N)CNC(=O)c1c(C2CC2)nn2c(OCc3c(F)cccc3F)cc(C)cc12 (single isomer, unassigned) [Example 55, ent-N-(2-Amino-2-methylpentyl)-2-cyclopropyl-7-[(2,6-difluorobenzyl)oxy]-5-methylpyrazolo[1,5-a]pyridine-3-carboxamide] | 0.37 | 2.76 | 3.5 | 156 | 0.1
